Key:
[1] = Systemic exposure of LUM001 in patients under 18 years (study NB-00-02-014); type: in vivo, human; settings: QD, day eight
Procedure: LUM001 has been administered to forty patients under the age of 18 years old. […] The drug was administered once-a-day (QD) in the morning for fourteen days. […] These doses are similar to those using to treat patients with PSC-IBD or PSC.

[2] = Open-label single-dose [14C]LUM001 oral solution study: radioactivity in plasma, whole blood, urine, feces; type: in vivo, human; settings: for Radioactive Concentration, Plasma / Radioactive Concentration, Whole Blood: 5 mg [14C]LUM001 oral solution
Procedure: This was an open-label, one-period, single-dose study of a [^14C]LUM001 oral solution. Eight healthy male subjects received an oral solution of 5 mg [^14C]LUM001 (containing approximately […] per dose). Blood samples were collected at predose and for 72 hours postdose, urine samples were collected predose and for 168 hours postdose and feces were collected predose and for 216 hours postdose. Plasma, whole blood, urine and fecal samples were analyzed for total radioactivity, and selected fecal samples were analyzed for LUM001 and relevant metabolite concentrations. In addition, metabolic profiles in selected fecal samples were obtained using high performance liquid radio chromatography (HPLRC).

serum cholesterol = experiment: Serum total, HDL and non-HDL cholesterol, hamsters dosed 28 days; type: in vivo, golden Syrian hamster; settings: hamster
Excerpt: Male golden Syrian hamsters (126-147 gm) were obtained from Charles Rivers Laboratories and were single housed in a constant temperature environment with alternating 12-hour light and dark cycles. Hamsters were fed Teklad 7001 rodent meal chow at libitum for two weeks before the experimental studies began and switched to Teklad 7001 rodent meal chow supplemented with 0.24% cholesterol on day one of the 28-day experiment. Water was continuously available to the animals. Hamsters were assigned to groups in a manner that normalized each group by pretreatment body weights. SD-5613 was dissolved in an aqueous solution of 0.2% (w/v) Tween 80 and administered Q.D. by intragastric gavage between 9 a.m. and 10 a.m. each morning using a syringe fitted with a flexible feeding tube. Blood samples were collected after 14- and 28-day treatment periods by orbital sinus and cardiac puncture, respectively. Hamsters were anesthetized but not fasted prior to blood collections. Fecal samples were collected during a 48-hour period at the end of days 14 and 28 (i.e. days 13-14 and 27-28). Hamsters were sacrificed using carbon dioxide asphyxiation to obtain the following tissue samples: liver, kidneys, colon and cecum.
Blood was collected at 14 and 28 days from non-fasted hamsters and put into serum separator tubes. The blood cells were separated from the serum by centrifugation at 2000×g for 20 minutes and the serum decanted. Total cholesterol was measured using a Cobas Mira Classic clinical chemistry analyzer (Roche Diagnostic Systems, Indianapolis, Ind.). This analyzer used the cholesterol oxidase reaction to produce hydrogen peroxide which was measured colorimetrically. The cholesterol reagent (Roche Diagnostic Systems) was reconstituted according to package insert. The reagent was calibrated using Roche Calibrator Serum. Commercial bi-level quality control material was analyzed to verify calibration and reagent performance (QC1, QC2-Bio-Rad Laboratories, Irvine, Calif.). The cholesterol content of each sample was measured at 500 nm and 37° C. in a calibrated analyzer by mixing 3 μl of sample with 150 μl cholesterol reagent and 40 μl water.
The Unimate HDL Direct Cholesterol assay (DHDL, Roche Diagnostics) was based on the […] of synthetic polymers and polyanions to the surface of lipoproteins. The combined action of polymers, polyanions and detergent solubilizes cholesterol from HDL, but transforms LDL, VLDL, and chylomicrons into detergent-resistant forms. Solubilized cholesterol was oxidized by the sequential enzymatic action of cholesterol esterase and cholesterol oxidase. The H2O2 produced in this reaction was reacted with chromogens to form a colored dye. The increase in absorbance at 550 nm was directly proportional to the HDL cholesterol concentration of the sample. The test was performed using a Cobas Mira Classic clinical chemistry analyzer (Roche Diagnostic Systems). The DHDL reagent (Roche Diagnostic Systems) was reconstituted according to the package insert. The reagent was calibrated using Roche HDL Direct Calibrator. Commercial bi-level quality control material was analyzed to verify calibration and reagent performance (Liquichek Lipids Control, Level 1 & 2, Bio-Rad Laboratories, Irvine, Calif.). A 2.4 μl aliquot of serum was analyzed in the presence of 240 μl of Reagent 1, 80 μl of Reagent 2 and 5 μl of water at 37° C. and 550 nm wavelength. Triglycerides were hydrolyzed by lipoprotein lipase to glycerol and fatty acids. Glycerol was then phosphorylated to glycerol-3-phosphate by adenosine 5-triphosphate (ATP) in a reaction catalyzed by glycerol kinase (GK). The oxidation of glycerol-3-phosphate was catalyzed by glycerolphosphate oxidase (GPO) to form dihydroxyacetone phosphate and hydrogen peroxide. The hydrogen peroxide reacted with 4-cholorophenol and 4-aminophenazone in the presence of peroxidase to form a quinoneimine complex, which was read at 490-550 nm. […]

[3] = Toxicokinetics of LUM001 free form, 13-week oral gavage toxicity study in rats; type: in vivo; settings: plasma; rat, after IV administration of 3 mg/kg; read-out: AUC(0-24 h)

CCCCC1(CCCC)CS(=O)(=O)c2ccc(N(C)C)cc2[C@@H](c2ccc(OCc3ccc(C[N+]45CCN(CC4)CC5)cc3)cc2)[C@H]1O [LUM001]
systemic exposure [1]: minimally absorbed
Radioactive Concentration, Plasma ([2]; 0.5 hr): BLQ
Radioactive Concentration, Plasma ([2]; 1 hr): BLQ
Radioactive Concentration, Whole Blood ([2]; 1 hr): 0.000 ng equivalents/g
Radioactive Concentration, Plasma ([2]; 1.5 hr): BLQ
Radioactive Concentration, Plasma ([2]; 2 hr): BLQ
Radioactive Concentration, Plasma ([2]; 2.5 hr): BLQ
Radioactive Concentration, Plasma ([2]; 3 hr): BLQ
Radioactive Concentration, Plasma ([2]; 4 hr): BLQ
Radioactive Concentration, Whole Blood ([2]; 4 hr): 0.000 ng equivalents/g
Radioactive Concentration, Plasma ([2]; 6 hr): BLQ
Radioactive Concentration, Plasma ([2]; 8 hr): BLQ
Radioactive Concentration, Plasma ([2]; 12 hr): BLQ
Radioactive Concentration, Plasma ([2]; 16 hr): 0.000 ng equivalents/mL
Radioactive Concentration, Plasma ([2]; 24 hr): BLQ
Radioactive Concentration, Plasma ([2]; 36 hr): 0.000 ng equivalents/mL
Radioactive Concentration, Plasma ([2]; 48 hr): BLQ
Radioactive Concentration, Plasma ([2]; 60 hr): BLQ
Radioactive Concentration, Plasma ([2]; 72 hr): BLQ
Radioactive Concentration, Whole Blood ([2]; −0.5 hr): 0.000 ng equivalents/g
Percent of Dose ([2]; analyte in feces, mean): 65.0 ± 3.1%
Cumulative % of Total Dose, Total (Urine and Feces) ([2]; radioactivity): 72.532%
Cumulative % of Total Dose, Urine ([2]; radioactivity, 0-2 hr): 0.005%
Cumulative % of Total Dose, Feces ([2]; radioactivity, 0-24 hr): 30.376%
Cumulative % of Total Dose, Urine ([2]; radioactivity, 2-4 hr): 0.012%
Cumulative % of Total Dose, Urine ([2]; radioactivity, 4-8 hr): 0.028%
Cumulative % of Total Dose, Urine ([2]; radioactivity, 8-12 hr): 0.041%
Cumulative % of Total Dose, Urine ([2]; radioactivity, 12-24 hr): 0.058%
Cumulative % of Total Dose, Feces ([2]; radioactivity, 24-48 hr): 49.878%
Cumulative % of Total Dose, Urine ([2]; radioactivity, 24-48 hr): 0.057%
Cumulative % of Total Dose, Feces ([2]; radioactivity, 48-72 hr): 67.630%
Cumulative % of Total Dose, Urine ([2]; radioactivity, 48-72 hr): 0.062%
Cumulative % of Total Dose, Feces ([2]; radioactivity, 72-96 hr): 69.653%
Cumulative % of Total Dose, Urine ([2]; radioactivity, 72-96 hr): 0.063%
Cumulative % of Total Dose, Feces ([2]; radioactivity, 96-120 hr): 71.606%
Cumulative % of Total Dose, Urine ([2]; radioactivity, 96-120 hr): 0.063%
Cumulative % of Total Dose, Feces ([2]; radioactivity, 120-144 hr): 71.771%
Cumulative % of Total Dose, Urine ([2]; radioactivity, 120-144 hr): 0.064%
Cumulative % of Total Dose, Feces ([2]; radioactivity, 144-168 hr): 71.815%
Cumulative % of Total Dose, Urine ([2]; radioactivity, 144-168 hr): 0.066%
Cumulative % of Total Dose, Feces ([2]; radioactivity, 168-192 hr): 71.885%
Cumulative % of Total Dose, Feces ([2]; radioactivity, 192-216 hr): 71.885%
Cumulative % of Total Dose, Feces ([2]; radioactivity, incl. Toilet Paper (cumulative recovery from first five fecal samples)): 72.466%
HDL-cholesterol (serum cholesterol; 5 mg/kg/day): 127 ± 10 mg/dL
HDL-cholesterol, % change from vehicle group (serum cholesterol; 5 mg/kg/day): (−22) %
Non-HDL-cholesterol (serum cholesterol; 5 mg/kg/day): 99 ± 9 mg/dL
Non-HDL-cholesterol, % change from vehicle group (serum cholesterol; 5 mg/kg/day): (−37) %
Serum Total Cholesterol (serum cholesterol; 5 mg/kg/day): 225 ± 16 mg/dL
Serum Total Cholesterol, % change from vehicle group (serum cholesterol; 5 mg/kg/day): (−29) %
HDL-cholesterol (serum cholesterol; 15 mg/kg/day): 115 ± 7 mg/dL
HDL-cholesterol, % change from vehicle group (serum cholesterol; 15 mg/kg/day): (−29) %
Non-HDL-cholesterol (serum cholesterol; 15 mg/kg/day): 86 ± 8 mg/dL
Non-HDL-cholesterol, % change from vehicle group (serum cholesterol; 15 mg/kg/day): (−45) %
Serum Total Cholesterol (serum cholesterol; 15 mg/kg/day): 201 ± 14 mg/dL
Serum Total Cholesterol, % change from vehicle group (serum cholesterol; 15 mg/kg/day): (−37) %
HDL-cholesterol (serum cholesterol; 50 mg/kg/day): 102 ± 4 mg/dL
HDL-cholesterol, % change from vehicle group (serum cholesterol; 50 mg/kg/day): (−37) %
Non-HDL-cholesterol (serum cholesterol; 50 mg/kg/day): 76 ± 4 mg/dL
Non-HDL-cholesterol, % change from vehicle group (serum cholesterol; 50 mg/kg/day): (−52) %
Serum Total Cholesterol (serum cholesterol; 50 mg/kg/day): 178 ± 6 mg/dL
Serum Total Cholesterol, % change from vehicle group (serum cholesterol; 50 mg/kg/day): (−44) %
AUC(0-t) [3]: 4320 ng·h/mL

From patent publication US20140275090A1, “BILE ACID RECYCLING INHIBITORS FOR TREATMENT OF PRIMARY SCLEROSING CHOLANGITIS AND INFLAMMATORY BOWEL DISEASE” (Lumena Pharmaceuticals, Inc., priority 2013, published 2014)
